{"source": "patent US12383522B2", "about": "“Baclofen formulations and methods of minimizing patient exposure to metabolite variations” (AMNEAL PHARMACEUTICALS LLC, priority 2021, dated 2025)", "key": {"[1]": {"settings": "background statement; cited from earlier work"}, "[2]": {"assay": "Accelerated stability studies of API/stabilizer preparations (Example 1), lactam impurity A by HPLC", "assay_type": "physicochemical"}}, "note": "Read-outs that look alike come from different tables or passages of the source.", "data": [{"compound": "O=C(O)CC(CO)c1ccc(Cl)cc1", "note": "(centres unmarked) [Treatment M1, 3-(4-chlorophenyl)-4-hydroxybutyric acid]", "values": [{"measurement": "biological activity of metabolite (limited evaluation)", "setting": "[1]", "result": "inactive"}, {"measurement": "share of dominant metabolite of baclofen (reported)", "setting": "[1]", "result": 15, "unit": "%"}]}, {"compound": "NCC(CC(=O)O)c1ccc(Cl)cc1", "note": "(centres unmarked) [baclofen, 4-amino-3-(4-chlorophenyl)butanoic acid]", "values": [{"measurement": "effect of EUDRAGIT E on formation of lactam impurity A", "setting": "[2]; closed glass vials, 60° C. (baclofen, gabapentin) or 80° C. (pregabalin), HPLC, FIGS. 1-12", "result": "stabilization effect"}]}, {"compound": "NCC1(CC(=O)O)CCCCC1", "note": "[gabapentin]", "values": [{"measurement": "effect of EUDRAGIT E on formation of lactam impurity A", "setting": "[2]", "result": "destabilization effect"}]}, {"compound": "CC(C)C[C@H](CN)CC(=O)O", "note": "[pregabalin]", "values": [{"measurement": "effect of EUDRAGIT E on formation of lactam impurity A", "setting": "[2]", "result": "destabilization effect"}]}]}
